In one data set the test system is NRF2. Nature of the data set: NRF2 activation assay (DiscoverX PathHunter NRF2 translocation kit, U2OS cells). The data set is classed as cell-based. The conditions noted are these: Homo sapiens, 6 hours; for Emax: normalised to DMF high control. Here is the method:
Biological Example 2—NRF2 Activation Assay
Measuring Compound Activation Effects on the Anti-Inflammatory Transcription Factor NRF2 in DiscoverX PathHunter NRF2 Translocation Kit
Potency and efficacy of compounds of formula (I) against the target of interest to activate NRF2 (nuclear factor erythroid 2-related factor 2) were determined using the PathHunter NRF2 translocation kit (DiscoverX). The NRF2 translocation assay was run using an engineered recombinant cell line, utilising enzyme fragment complementation to determine activation of the Keap1-NRF2 protein complex and subsequent translocation of NRF2 into the nucleus. Enzyme activity was quantified using a chemiluminescent substrate consumed following the formation of a functional enzyme upon PK-tagged NRF2 translocation into the nucleus.
Additionally, a defined concentration of DMF was used as the ‘High’ control to normalise test compound activation responses to.
U2OS PathHunter eXpress cells were thawed from frozen prior to plating. Following plating, U2OS cells were incubated for 24 hrs (37° C./5% CO2) in commercial kit provided cell medium.
Following 24 hrs of incubation, plated U2OS cells were directly treated with an appropriate final concentration of compound. […]
Following compound treatment, the U2OS plates were incubated for a further 6 hours (37° C./5% CO2) before detection reagent from the PathHunter NRF2 commercial kit was prepared and added to test plates according to the manufacturer's instructions. Subsequently, the luminescence signal detection was measured in a microplate reader (PHERAstar®, BMG Labtech).
Percentage activation was calculated by normalising the sample data to the high and low controls used within each plate (+/−DMF). Percentage activation/response was then plotted against compound concentration and the 50% activation concentration ([…]) was determined from the plotted concentration-response curve.

The next data set deals with IL-1β. Nature of the data set: THP-1 AlphaLISA IL-1β cytokine inhibition assay (differentiated THP-1 cells). It counts as cell-based. The conditions noted are these: Homo sapiens, LPS 24 hr then Nigericin 1 hour, class symbols. Here is the method: Biological Example 1—THP-1 AlphaLISA IL-1β
Measuring Inhibitory Effects on IL-1, Cytokine Output from THP-1s
(§1) The cytokine inhibition profiles of compounds of formula (I) were determined in a differentiated THP-1 cell assay. All assays were performed in RPMI-1640 growth medium (Gibco), supplemented with 10% fetal bovine serum (FBS; Gibco), 1% penicillin-streptomycin and 1% sodium pyruvate unless specified otherwise. The IL-1p cytokine inhibition assay was run in a background of differentiated THP-1 cells as described below. All reagents described were from Sigma-Aldrich unless specified otherwise. Compounds were prepared as 10 mM DMSO stocks.
(§2) THP-1 cells were expanded as a suspension up to 80% confluence in appropriate growth medium. Cells were harvested, suspended, and treated with an appropriate concentration of phorbol 12-myristate 13-acetate (PMA) over a 72 hr period (37° C./5% CO2).
(§3) Following 72 hrs of THP-1 cell incubation, cellular medium was removed and replaced with fresh growth media containing 1% of FBS. Working concentrations of compounds were prepared separately in 10% FBS treated growth medium and pre-incubated with the cells for 30 minutes (37° C./5% CO2). Following the 30 minute compound pre-incubation, THP-1s were treated with an appropriate concentration of LPS and the cells were subsequently incubated for a 24 hr period (37° C./5% CO2). An appropriate final concentration of Nigericin was then dispensed into the THP-1 plates and incubated for 1 hour (37° C./5% CO2) before THP-1 supernatants were harvested and collected in separate polypropylene 96-well holding plates.
(§4) Reagents from an IL-1β and IL-6 commercial kit (Perkin Elmer) were prepared and run according to the manufacturer's instructions. Subsequently, fluorescence signal detection in a microplate reader was measured (EnVision® Multilabel Reader, Perkin Elmer).
(§5) Percentage inhibition was calculated per cytokine by normalising the sample data to the high and low controls used within each plate (+/−LPS respectively). Percentage inhibition was then plotted against compound concentration and the 50% inhibitory concentration (IC50) was determined from the resultant concentration-response curve.
Background: Alpha assays give light when donor and acceptor beads are brought close together.

A short description of data set [1]: Hepatocyte stability assay, human cryopreserved hepatocytes. It counts as in vitro ADME. To be noted: cryopreserved hepatocytes; Human hepatocytes, 10 μM, 60 min; class symbols; read-out: T½. An excerpt: (§6) Biological Example 3—Hepatocyte Stability Assay
(§7) Defrosted cryo-preserved hepatocytes (viability >70%) were used to determine the metabolic stability of a compound via calculation of intrinsic clearance (CIint; a measure of the removal of a compound from the liver in the absence of blood flow and cell binding). Clearance data are particularly important for in vitro work as they can be used in combination with in vivo data to predict the half-life and oral bioavailability of a drug.
(§8) The metabolic stability in hepatocytes assay involves a time-dependent reaction using both positive and negative controls. The cells were pre-incubated at 37° C. and spiked with test compound (and positive control); samples taken at pre-determined time intervals were analysed to monitor the change in concentration of the initial drug compound over 60 minutes. A buffer incubation reaction (with no hepatocytes present) acted as a negative control and two cocktail solutions, containing compounds with known high and low clearance values (verapamil/7-hydroxycoumarin and propranolol/diltiazem), acted as positive controls. • 1. The assay was run with a cell concentration of 0.5×10^6 cells/mL in Leibovitz buffer. • 2. All compounds and controls were run in duplicate. • 3. Compound concentration was 10 μM. • 4. All compounds and controls were incubated with both cells and buffer to show turnover was due to hepatic metabolism. • 5. All wells on the incubation plate had 326.7 μL of either cells or buffer added. • 6. Prior to assay, cell and buffer-only incubation plates were preincubated for 10 mins at 37° C. • 7. The assay was initiated by adding compounds, 3.3 μL of 1 mM in 10% DMSO-90% Buffer; final DMSO concentration is 0.1%. • 8. Samples were taken at regular timepoints (0, 5, 10, 20, 40, 60 min) until 60 mins. • 9. Sample volume was 40 μL and was added to 160 μL of crash solvent (acetonitrile with internal standard) and stored on ice. • 10. At the end of the assay, the crash plates were centrifuged at 3500 rpm for 20 mins at 4° C. • 11. 80 μL of clear supernatant was removed and mixed with 80 μL of deionised water before being analysed by LC-MS/MS.
(§9) Raw LC-MS/MS data was exported to, and analysed in, Microsoft Excel for determination of intrinsic clearance. The percentage remaining of a compound was monitored using the peak area of the initial concentration as 100%. Intrinsic clearance and half-life values were calculated using a graph of the natural log of percentage remaining versus the time of reaction in minutes. Half-life (min) and intrinsic clearance (CIint in μL min^−1 10^−6 cells) values were calculated using the gradient of the graph (the elimination rate constant, k) and Equations 1 and 2.

Data set [2] has as its system cryo-preserved hepatocytes. Nature of the data set: Hepatocyte stability assay, mouse cryopreserved hepatocytes. The data set is classed as in vitro ADME. To be noted: Mouse hepatocytes, 10 μM, 60 min; class symbols.
Source text: as §6, §7, §8, §9

Test in data set [3]: as above
The data set is classed as in vitro ADME. To be noted: cryopreserved hepatocytes; Mouse hepatocytes, 10 μM, 60 min; class symbols; read-out: T½.
Source text: as §6, §7, §8, §9

Another data set relates to IL-6. Nature of the data set: THP-1 AlphaLISA IL-6 cytokine inhibition assay (differentiated THP-1 cells). It counts as cell-based. To be noted: Homo sapiens, LPS 24 hr then Nigericin 1 hour, class symbols. As to the method:
as §1, §2, §3, §4, §5

Structures can show the parent of a compound that is named as a salt.

For `C=C(Cc1nc(CCCCCCCC)no1)C(=O)OCCC(=O)O` [Example 2], the EC50 (as a rule, the concentration that produces a half-maximal response) in the data set with NRF2 (class symbols) was under 5 µM. Moreover, the Emax (in general, the greatest response seen or fitted, relative to the assay's reference) in the data set with NRF2 (class symbols) fell in the range of 135 to 165%. Further, the IC50 (usually the concentration needed to halve the response being measured) in the data set on IL-1β was under 5 µM. For the same compound, the half-life at 10 μM in data set [1] was 5 to 59 min; in data set [3] it was at most 4 min. Also, the Clint entry in data set [2] is “+ (+ means ≥351)”.
In the data set with NRF2 (class symbols), `C=C(Cc1nc(Cc2ccc(CCCC)cc2)no1)C(=O)OCCc1nnn[nH]1` [Example 14, 2-(1H-tetrazol-5-yl)ethyl 2-((3-(4-butylbenzyl)-1,2,4-oxadiazol-5-yl)methyl)acrylate] displayed a half-maximal effective concentration (EC50) of under 5 µM. Also, the Emax with NRF2 (class symbols) was in the range of 135 to 165%. Also, the IC50 in the data set on IL-1β and in the data set on IL-6 was under 5 µM each time. The half-life at 10 μM was 5 to 59 min in data set [1] and at most 4 min in data set [3]. For the same compound, the Clint result in data set [2] is listed as “+ (+ means ≥351)”.
`C=C(Cc1nc(CCCCCCCC)no1)C(=O)OCC(=O)O` [Example 1, 2-((2-((3-octyl-1,2,4-oxadiazol-5-yl)methyl)acryloyl)oxy)acetic acid] returned an EC50 in the data set with NRF2 (class symbols) of under 5 µM. Moreover, the Emax with NRF2 (class symbols) fell in the range of 135 to 165%. Moreover, the IC50 in the data set on IL-1β and in the data set on IL-6 was under 5 µM each time. The half-life at 10 μM was 5 to 59 min in data set [1] and at most 4 min in data set [3]. For the same compound, the Clint entry in data set [2] is recorded as “+ (+ means ≥351)”.
Regarding `C=C(Cc1nc(C2(c3ccc(SC(F)(F)F)cc3)CC2)no1)C(=O)OCC(=O)O` [Example 22, 2-((2-((3-(1-(4-((trifluoromethyl)thio)phenyl)cyclopropyl)-1,2,4-oxadiazol-5-yl)methyl)acryloyl)oxy)acetic acid], the EC50 in the data set with NRF2 (class symbols) is under 5 µM. For the same compound, the Emax with NRF2 (class symbols) was in the range of 135 to 165%. The IC50 in the data set with IL-1β and in the data set with IL-6 was under 5 µM each time. Besides, the half-life at 10 μM in data set [1] was 5 to 59 min; in data set [3], at most 4 min. Further, the Clint result in data set [2] is listed as “+ (+ means ≥351)”.
Take `C=C(Cc1nc(CCCCC)no1)C(=O)OCC(=O)O` [Example 21, 2-((2-((3-pentyl-1,2,4-oxadiazol-5-yl)methyl)acryloyl)oxy)acetic acid]: in the data set on NRF2 (class symbols), the EC50 fell in the range of 11 to 21 µM and the Emax lay in the range of 166 to 250%. This compound registered an IC50 in the data set with IL-1β of 21 to 24 µM. Further, the IC50 with IL-6 was in the range of 11 to 20 µM.
With `C=C(Cc1nc(CCCCCCCC)no1)C(=O)OC(C(F)(F)F)C(C)(C)C(=O)O` (stereo not shown) [Example 17, 4,4,4-trifluoro-2,2-dimethyl-3-((2-((3-octyl-1,2,4-oxadiazol-5-yl)methyl)acryloyl)oxy)butanoic acid], the IC50 in the data set with IL-1β and in the data set on IL-6 was under 5 µM each time. Moreover, the half-life at 10 μM in data set [1] was 5 to 59 min; in data set [3], at most 4 min. Further, in data set [2], the Clint entry is listed as “+ (+ means ≥351)”.
In the data set with NRF2 (class symbols), `C=C(Cc1nc(C2(c3ccc(C(F)(F)F)cc3)CC2)no1)C(=O)O[C@H](CC(=O)O)C(F)(F)F` [Example 7, (R)-4,4,4-trifluoro-3-((2-((3-(1-(4-(trifluoromethyl)phenyl)cyclopropyl)-1,2,4-oxadiazol-5-yl)methyl)acryloyl)oxy)butanoic acid] showed a concentration giving a half-maximal response (EC50) of under 5 µM. The compound further had an Emax with NRF2 (class symbols) of 3 to 100%. In addition, the IC50 in the data set on IL-1β and in the data set with IL-6 was under 5 µM each time. Besides, the half-life at 10 μM in data set [1] was 5 to 59 min; in data set [3] it was at most 4 min. In addition, the Clint result in data set [2] is “+ (+ means ≥351)”.
For `C=C(Cc1nc(Cc2ccc(CCCCC)cc2)no1)C(=O)O[C@@H](CC(=O)O)C(F)(F)F` [Example 12, (S)-4,4,4-trifluoro-3-((2-((3-(4-pentylbenzyl)-1,2,4-oxadiazol-5-yl)methyl)acryloyl)oxy)butanoic acid], the EC50 in the data set on NRF2 (class symbols) is under 5 µM. This compound also displayed an Emax in the data set with NRF2 (class symbols) of 166 to 250%. Moreover, the IC50 in the data set on IL-1β and in the data set on IL-6 was under 5 µM in each case.
Turning to `C=C(Cc1nc(Cc2ccc(OC(F)(F)F)cc2)no1)C(=O)OCC(=O)O` [Example 20, 2-((2-((3-(4-(trifluoromethoxy)benzyl)-1,2,4-oxadiazol-5-yl)methyl)acryloyl)oxy)acetic acid], the IC50 in the data set on IL-1β was 5 to 10 µM; in the data set with IL-6, under 5 µM. In addition, the half-life at 10 μM is over 100 min in data set [1] and 5 to 11 min in data set [3]. In addition, the Clint entry in data set [2] is listed as “++ (++ means 95-350)”.
Take `C=C(Cc1nc(Cc2ccc(CCCC)cc2)no1)C(=O)O[C@H](CC(=O)O)C(F)(F)F` [Example 9, (R)-3-((2-((3-(4-butylbenzyl)-1,2,4-oxadiazol-5-yl)methyl)acryloyl)oxy)-4,4,4-trifluorobutanoic acid]: in the data set on NRF2 (class symbols), the EC50 was under 5 µM and the Emax is 101 to 134%. Moreover, the IC50 in the data set on IL-1β is under 5 µM. This compound gave a concentration for half-maximal inhibition (IC50) in the data set on IL-6 of under 5 µM.
In the data set with NRF2 (numeric values), `COC(=O)/C=C/C(=O)OC` [dimethyl fumarate, reference compound] came in with an Emax of 100% and an EC50 of 6.1 µM.
In the case of `C=C(Cc1nc(Cc2ccc(CCCC)cc2)no1)C(=O)OCCC(=O)O` [Example 15, 3-((2-((3-(4-butylbenzyl)-1,2,4-oxadiazol-5-yl)methyl)acryloyl)oxy)propanoic acid], the IC50 in the data set on IL-1β and with IL-6 was under 5 µM each time. Besides, the half-life at 10 μM in data set [1] was 5 to 59 min; in data set [3], at most 4 min. Further, the Clint entry in data set [2] is listed as “+ (+ means ≥351)”.
On to `C=C(Cc1nc(Cc2ccc(CCCCC)cc2)no1)C(=O)O[C@H](CC(=O)O)C(F)(F)F` [Example 11, (R)-4,4,4-trifluoro-3-((2-((3-(4-pentylbenzyl)-1,2,4-oxadiazol-5-yl)methyl)acryloyl)oxy)butanoic acid], for which, in the data set on NRF2 (class symbols), the EC50 is under 5 µM and the Emax lay within 101 to 134%. For the same compound, the IC50 in the data set with IL-1β was under 5 µM. The IC50 in the data set on IL-6 is under 5 µM.

These data come from patent publication US12459908B2, “Alpha, beta unsaturated methacrylic esters with anti-inflammatory properties” (Sitryx Therapeutics Limited, priority 2020, dated 2025).
